The values below come from US8088763B2 (priority 2004, dated 2012).

In one test the target is T1, 5HT-uptake (Rattus norvegicus, UniProt P31652).
T1 construct: synaptosomes were freshly isolated from areas of rats' brains
Description: biochemical. The settings on record: for inhibition at 10 µM: read-out: 5HT-uptake [10 μM], % inhibition.

The next test has as its target NA-uptake (Rattus norvegicus, UniProt Q63380). Description: biochemical. Particulars: for inhibition at 10 µM: read-out: NA-uptake [10 μM], % inhibition.

For orientation: inhibition means the drop in the measured response relative to a control, in per cent.

T1 sequence (P31652 whole entry): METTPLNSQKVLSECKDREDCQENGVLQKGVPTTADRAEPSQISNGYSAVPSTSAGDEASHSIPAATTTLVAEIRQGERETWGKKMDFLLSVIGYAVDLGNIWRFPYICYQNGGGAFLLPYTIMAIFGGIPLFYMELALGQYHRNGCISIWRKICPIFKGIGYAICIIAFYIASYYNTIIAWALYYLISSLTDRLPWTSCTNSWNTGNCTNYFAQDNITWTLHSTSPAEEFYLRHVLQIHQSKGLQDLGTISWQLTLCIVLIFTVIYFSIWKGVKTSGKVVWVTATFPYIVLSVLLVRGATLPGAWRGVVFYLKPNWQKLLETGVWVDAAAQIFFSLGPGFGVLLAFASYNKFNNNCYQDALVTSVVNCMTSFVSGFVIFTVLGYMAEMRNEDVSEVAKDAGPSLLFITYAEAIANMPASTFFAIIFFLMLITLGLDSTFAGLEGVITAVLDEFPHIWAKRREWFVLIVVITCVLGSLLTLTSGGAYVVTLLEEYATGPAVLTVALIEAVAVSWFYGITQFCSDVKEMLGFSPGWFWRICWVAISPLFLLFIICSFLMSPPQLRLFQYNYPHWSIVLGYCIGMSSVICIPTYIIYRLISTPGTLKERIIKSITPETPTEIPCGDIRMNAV
Chain of NA-uptake (Q63380 1-617): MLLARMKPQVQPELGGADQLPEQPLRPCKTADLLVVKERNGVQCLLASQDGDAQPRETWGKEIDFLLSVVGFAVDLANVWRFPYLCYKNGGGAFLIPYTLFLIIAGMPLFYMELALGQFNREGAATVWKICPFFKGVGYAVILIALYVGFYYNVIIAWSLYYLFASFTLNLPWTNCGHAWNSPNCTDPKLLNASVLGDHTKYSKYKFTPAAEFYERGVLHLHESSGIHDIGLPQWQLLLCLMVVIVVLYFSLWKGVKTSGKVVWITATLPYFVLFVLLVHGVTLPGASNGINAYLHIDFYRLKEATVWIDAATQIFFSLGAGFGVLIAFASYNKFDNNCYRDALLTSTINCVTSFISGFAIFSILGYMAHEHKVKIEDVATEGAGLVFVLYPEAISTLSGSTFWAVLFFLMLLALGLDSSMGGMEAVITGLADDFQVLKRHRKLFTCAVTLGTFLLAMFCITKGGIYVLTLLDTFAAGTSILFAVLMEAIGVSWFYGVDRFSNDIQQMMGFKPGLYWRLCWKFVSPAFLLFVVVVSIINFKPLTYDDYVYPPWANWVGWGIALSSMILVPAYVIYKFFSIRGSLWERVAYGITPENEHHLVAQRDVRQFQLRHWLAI

`Cc1cccc(CC2(N(C)C)CCC(NC(=O)CCC(=O)N3CCN(Cc4c(Cl)cccc4Cl)CC3)CC2)c1` (centres unmarked) [Example 23, 4-[4-(2,6-dichloro-benzyl)-piperazin-1-yl]-N-[4-dimethylamino-4-(3-methyl-benzyl)-cyclohexyl]-4-oxo-butyramide]: the inhibition at 10 µM on 5HT-uptake and at NA-uptake was 92% throughout.
Take `Cc1cnc(C(=O)N2CCN(C(=O)CCC(=O)NC3CCC(Cc4cccc(Cl)c4)(N(C)C)CC3)CC2)cn1` (centres unmarked) [Example 33, N-[4-(3-chloro-benzyl)-4-dimethylamino-cyclohexyl]-4-[4-(5-methyl-pyrazin-2-carbonyl)-piperazin-1-yl]-4-oxo-butyramide]: the inhibition at 10 µM stood at 95% at 5HT-uptake and 99% at NA-uptake.
`CCOC(=O)C(C)NC(=O)CCC(=O)NC1CCC(Cc2ccc(Cl)cc2)(N(C)C)CC1` (centres unmarked) [Example 7, 2-{3-[4-(4-chloro-benzyl)-4-dimethylamino-cyclohexylcarbamoyl]-propionylamino}-propanoic acid ethylester]: the inhibition at 10 µM on 5HT-uptake worked out at 93%; on NA-uptake, 91%.
For `CN(C)C1(Cc2ccc(Cl)cc2)CCC(NC(=O)CCC(=O)NC2CCCC2)CC1` (centres unmarked) [Example 44, N-[4-(4-chloro-benzyl)-4-dimethylamino-cyclohexyl]-Nt-cyclopentyl-succinamide], the “5HT-uptake [10 μM], % inhibition” value on 5HT-uptake worked out at 94%. Further, the “NA-uptake [10 μM], % inhibition” value on NA-uptake stood at 84%.
In the case of `COc1cc(CN2CCN(C(=O)CCC(=O)NC3CCC(Cc4ccc(C)cc4)(N(C)C)CC3)CC2)cc2c1OCO2` (centres unmarked) [Example 4, N-[4-dimethylamino-4-(4-methyl-benzyl)-cyclohexyl]-4-[4-(7-methoxy-benzo[1,3]dioxol-5-ylmethyl)-piperazin-1-yl]-4-oxo-butyramide], the values for the inhibition at 10 µM at 5HT-uptake and at NA-uptake were 92% and 89%, respectively.
On to `CCOc1ccccc1CNC(=O)CCC(=O)NC1CCC(Cc2ccc(C)cc2)(N(C)C)CC1` (centres unmarked) [Example 138, N-[4-dimethylamino-4-(4-methyl-benzyl)-cyclohexyl]-N′-(2-ethoxy-benzyl)-succinamide], for which the values for the inhibition at 10 µM at 5HT-uptake and on NA-uptake were 92% and 84%, respectively.
For the compound `COc1ccc(N2CCN(C(=O)CCC(=O)NC3CCC(Cc4ccc(C)cc4)(N(C)C)CC3)CC2)cc1` (centres unmarked) [Example 79, N-[4-dimethylamino-4-(4-methyl-benzyl)-cyclohexyl]-4-[4-(4-methoxy-phenyl)-piperazin-1-yl]-4-oxo-butyramide], the inhibition at 10 µM on 5HT-uptake stood at 96%; at NA-uptake, 95%.
Consider `COc1ccc(OC)c(CN2CCN(C(=O)CCCC(=O)NC3CCC(Cc4ccccc4)(N(C)C)CC3)CC2)c1` (centres unmarked) [Example 18, 5-[4-(2,5-dimethoxy-benzyl)-piperazin-1-yl]-5-oxo-valeric acid (4-benzyl-4-dimethylamino-cyclohexyl)-amide], for which the inhibition at 10 µM worked out at 94% at 5HT-uptake and 84% on NA-uptake.
Take `CCOc1ccc(N2CCN(C(=O)CCC(=O)NC3CCC(Cc4ccc(Cl)cc4)(N(C)C)CC3)CC2)cc1` (centres unmarked) [Example 16, N-[4-(4-chloro-benzyl)-4-dimethylamino-cyclohexyl]-4-[4-(4-ethoxy-phenyl)-piperazin-1-yl]-4-oxo-butyramide]: the inhibition at 10 µM at 5HT-uptake was 97%; at NA-uptake, 86%.
In the case of `CN(C)C1(Cc2ccc(Cl)cc2)CCC(NC(=O)CCC(=O)NC2CCN(Cc3ccc(C(F)(F)F)cc3)C2)CC1` (centres unmarked) [Example 98, N-[4-(4-chloro-benzyl)-4-dimethylamino-cyclohexyl]-N′-[1-(4-trifluoromethyl-benzyl)-pyrrolidin-3-yl]-succinamide], the values for the inhibition at 10 µM at 5HT-uptake and at NA-uptake were 92% and 74%, respectively.
For `Cc1cccc(CC2(N(C)C)CCC(NC(=O)CCC(=O)N3CCC(C(=O)c4ccccc4)CC3)CC2)c1` (centres unmarked) [Example 67, 4-(4-benzoyl-piperidin-1-yl)-N-[4-dimethylamino-4-(3-methyl-benzyl)-cyclohexyl]-4-oxo-butyramide], the inhibition at 10 µM on 5HT-uptake is 98%; at NA-uptake it was 96%.
Turning to `Cc1ccc(CC2(N(C)C)CCC(NC(=O)CCC(=O)NC(C)C(C)C)CC2)cc1` (centres unmarked) [Example 105, N-[4-dimethylamino-4-(4-methyl-benzyl)-cyclohexyl]-N′-(1,2-dimethyl-propyl)-succinamide], the inhibition at 10 µM on 5HT-uptake came to 92%; at NA-uptake, 90%.
As to `COC(=O)C(Cc1ccc(Cl)cc1)NC(=O)CCC(=O)NC1CCC(Cc2ccc(C)cc2)(N(C)C)CC1` (centres unmarked) [Example 32, 3-(4-chloro-phenyl)-2-{3-[4-dimethylamino-4-(4-methyl-benzyl)-cyclohexylcarbamoyl]-propionylamino}-propanoic acid methylester], the inhibition at 10 µM at 5HT-uptake is 99%; at NA-uptake it was 97%.
In the same order, the values of `COc1cccc(N2CCN(C(=O)CCC(=O)NC3CCC(Cc4cccc(C)c4)(N(C)C)CC3)CC2)c1` (centres unmarked) [Example 48, N-[4-dimethylamino-4-(3-methyl-benzyl)-cyclohexyl]-4-[4-(3-methoxy-phenyl)-piperazin-1-yl]-4-oxo-butyramide] are 94% and 97%.
Take `Cc1ccc(CC2(N(C)C)CCC(NC(=O)CCC(=O)N(C)CCc3ccccn3)CC2)cc1` (centres unmarked) [Example 38, N-[4-dimethylamino-4-(4-methyl-benzyl)-cyclohexyl]-N′-methyl-N′-(2-pyridin-2-yl-ethyl)-succinamide]: the inhibition at 10 µM came out at 95% at 5HT-uptake and 79% at NA-uptake.
For `Cc1cccc(CC2(N(C)C)CCC(NC(=O)CCC(=O)N(C)CCc3c[nH]c4ccccc34)CC2)c1` (centres unmarked) [Example 111, N-[4-dimethylamino-4-(3-methyl-benzyl)-cyclohexyl]-N′-[2-(1H-indol-3-yl)-ethyl]-N′-methyl-succinamide], the results for the inhibition at 10 µM at 5HT-uptake and at NA-uptake were 96% and 97%, respectively.
Take `CN(C)C1(Cc2ccc(Cl)cc2)CCC(NC(=O)CCC(=O)NCc2cccc(Br)c2)CC1` (centres unmarked) [Example 165, N-(3-bromo-benzyl)-N′-[4-(4-chloro-benzyl)-4-dimethylamino-cyclohexyl]-succinamide]: the inhibition at 10 µM was found to be 92% at 5HT-uptake and 94% at NA-uptake.
`CC1CN(C(=O)CCC(=O)NC2CCC(Cc3ccc(Cl)cc3)(N(C)C)CC2)CC(C)O1` (centres unmarked) [Example 86, N-[4-(4-chloro-benzyl)-4-dimethylamino-cyclohexyl]-4-(2,6-dimethyl-morpholin-4-yl)-4-oxo-butyramide]: the inhibition at 10 µM came to 92% on 5HT-uptake and 76% on NA-uptake.
The matching figures for `CN(C)C1(Cc2cccc(Cl)c2)CCC(NC(=O)CCC(=O)NC2CCOC2=O)CC1` (centres unmarked) [Example 2, N-[4-(3-chloro-benzyl)-4-dimethylamino-cyclohexyl]-N′-(2-oxo-tetrahydro-furan-3-yl)-succinamide]: 95% and 87%.
Take `Cc1cnc(C(=O)N2CCN(C(=O)CCCC(=O)NC3CCC(Cc4ccccc4)(N(C)C)CC3)CC2)cn1` (centres unmarked) [Example 41, 5-[4-(5-methyl-pyrazin-2-carbonyl)-piperazin-1-yl]-5-oxo-valeric acid (4-benzyl-4-dimethylamino-cyclohexyl)-amide]: the results for the inhibition at 10 µM at 5HT-uptake and at NA-uptake were 92% and 90%, respectively.
For the compound “Glutaric acid-(4-benzyl-4-dimethylamino- cyclohexyl)-amide 4-dimethylamino- benzylamide [Example 81]”, the “5HT-uptake [10 μM], % inhibition” value at 5HT-uptake is listed as 92%. Moreover, the “NA-uptake [10 μM], % inhibition” value at NA-uptake is on record as 91%.
Take `CCC(NC(=O)CCC(=O)NC1CCC(Cc2ccc(Cl)cc2)(N(C)C)CC1)c1ccccc1` (centres unmarked) [Example 135, N-[4-(4-chloro-benzyl)-4-dimethylamino-cyclohexyl]-N′-(1-phenyl-propyl)-succinamide]: the inhibition at 10 µM turned out to be 92% on 5HT-uptake and 96% on NA-uptake.
Regarding `Cc1ccc(CC2(N(C)C)CCC(NC(=O)CCC(=O)NCC3CCCO3)CC2)cc1` (centres unmarked) [Example 45, N-[4-dimethylamino-4-(4-methyl-benzyl)-cyclohexyl]-N′-(tetrahydro-furan-2-ylmethyl)-succinamide], the results for the inhibition at 10 µM at 5HT-uptake and at NA-uptake were 92% and 77%, respectively.
In the same order, the values of `CCC(C)c1ccc(NC(=O)CCC(=O)NC2CCC(Cc3ccc(Cl)cc3)(N(C)C)CC2)cc1` (centres unmarked) [Example 140, N-(4-sec-butyl-phenyl)-N′-[4-(4-chloro-benzyl)-4-dimethylamino-cyclohexyl]-succinamide] are 93% and 77%.
Take `CN(C)C1(Cc2cccc(Cl)c2)CCC(NC(=O)CCC(=O)N2CCC3(CC2)C(=O)NCN3c2ccccc2)CC1` (centres unmarked) [Example 114, N-[4-(3-chloro-benzyl)-4-dimethylamino-cyclohexyl]-4-oxo-4-(4-oxo-1-phenyl-1,3,8-triaza-spiro[4.5]dec-8-yl)-butyramide]: the inhibition at 10 µM at 5HT-uptake came out at 99%; on NA-uptake it was 106%.
As to `CCN(Cc1ccncc1)C(=O)CCC(=O)NC1CCC(Cc2ccc(Cl)cc2)(N(C)C)CC1` (centres unmarked) [Example 70, N-[4-(4-chloro-benzyl)-4-dimethylamino-cyclohexyl]-N′-ethyl-N′-pyridin-4-ylmethyl-succinamide], the inhibition at 10 µM worked out at 93% at 5HT-uptake and 96% on NA-uptake.
The matching figures for `C=CCOc1ccc(CN2CCN(C(=O)CCC(=O)NC3CCC(Cc4cccc(C)c4)(N(C)C)CC3)CC2)cc1` (centres unmarked) [Example 89, 4-[4-(4-allyloxy-benzyl)-piperazin-1-yl]-N-[4-dimethylamino-4-(3-methyl-benzyl)-cyclohexyl]-4-oxo-butyramide]: 94% and 98%.
Turning to `Cc1ccc(CC2(N(C)C)CCC(NC(=O)CCC(=O)N3CC=CCC3)CC2)cc1` (centres unmarked) [Example 19, 4-(3,6-dihydro-2H-pyridin-1-yl)-N-[4-dimethylamino-4-(4-methyl-benzyl)-cyclohexyl]-4-oxo-butyramide], the inhibition at 10 µM on 5HT-uptake was determined as 93%; on NA-uptake it was 74%.
